Laboratory results reported in PMC3700763, “First human dose-escalation study with remogliflozin etabonate, a selective inhibitor of the sodium-glucose transporter 2 (SGLT2), in healthy subjects and in subjects with type 2 diabetes mellitus” (BMC Pharmacology & Toxicology, 2013).
Marks after values point to notes of the source that are not given here.

Tests used:
[1] = Urine beta-2 microglobulin (exploratory renal toxicity biomarker), T2DM subjects; format: in vivo, human; settings: one T2DM subject
Procedure: Urine beta-2 microglobulin levels, an exploratory biomarker that was measured as a potential early indicator of renal toxicity, were within the normal range at both baseline and after treatment for all subjects except for two subjects with diabetes.

[2] = Fluid balance, healthy subjects; format: in vivo, human; settings: mean (SD)
Procedure: (§1) Urine samples were collected at pre-dose, and over a series of intervals (0–2, 2–4, 4–6, 6–8, 8–12 and 12–24 h post-dose) for the analysis of creatinine, glucose and electrolytes (Na, K and Cl). All fluid intake was recorded, as well as urine volume, over the 24 hours before and after dosing in each treatment period. Urine was tested for protein on the first morning void of day -1 and 24 h after dosing.

[3] = 24-h urine electrolyte excretion, healthy subjects; format: in vivo, human; settings: for Urinary chloride excretion / Urinary potassium excretion / Urinary sodium excretion: 24-h, healthy subjects, mean (SD)
Procedure: as §1

[4] = rats; cited from earlier work
SGLT2 = target: T1, SGLT2 (Homo sapiens, UniProt P31639); assay: 24-h urine glucose excretion, healthy subjects; format: in vivo; settings: for Filtered glucose excreted in urine / Urinary glucose excretion: 24-h, healthy subjects, mean (SD)
T1 construct: from tissue; host or cells: kidney (proximal tubule) of living human subjects: healthy volunteers and T2DM patients
T1 sequence (P31639 1-672): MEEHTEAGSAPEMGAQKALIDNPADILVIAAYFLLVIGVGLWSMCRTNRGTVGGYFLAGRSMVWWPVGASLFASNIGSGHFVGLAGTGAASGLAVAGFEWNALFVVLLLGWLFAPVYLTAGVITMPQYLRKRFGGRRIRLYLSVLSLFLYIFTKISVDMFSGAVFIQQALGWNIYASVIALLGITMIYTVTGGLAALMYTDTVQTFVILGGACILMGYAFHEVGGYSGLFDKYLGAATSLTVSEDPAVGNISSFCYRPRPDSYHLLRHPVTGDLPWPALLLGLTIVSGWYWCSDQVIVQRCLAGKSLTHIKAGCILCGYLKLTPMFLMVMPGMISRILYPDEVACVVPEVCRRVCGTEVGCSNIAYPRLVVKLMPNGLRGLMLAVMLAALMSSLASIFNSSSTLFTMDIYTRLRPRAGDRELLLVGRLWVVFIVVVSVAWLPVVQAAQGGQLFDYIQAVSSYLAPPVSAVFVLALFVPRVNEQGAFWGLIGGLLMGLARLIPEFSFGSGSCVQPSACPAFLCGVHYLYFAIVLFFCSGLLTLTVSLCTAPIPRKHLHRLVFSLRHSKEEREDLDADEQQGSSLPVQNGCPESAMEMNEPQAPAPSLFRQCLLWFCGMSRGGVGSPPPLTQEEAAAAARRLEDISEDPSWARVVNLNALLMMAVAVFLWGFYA
Procedure: as §1
The percentage of filtered glucose excreted in the urine for each individual time period was calculated as the amount of glucose excreted during that time period divided by (CLCR × PG × time interval length), where CLCR is the creatinine clearance for the time interval, PG is the plasma glucose concentration closest to the midpoint of the time interval, and the time interval is the period (min) of urine collection (CLCR × PG represents the glucose filtered load). For the 24-h period, the percentage of filtered glucose excreted was calculated as the amount of glucose excreted over 24 h divided by the sum over the individual time intervals of (CLCR × PG × time interval length).

Q: What does the source list for `CCOC(=O)OC[C@H]1O[C@@H](Oc2nn(C(C)C)c(C)c2Cc2ccc(OC(C)C)cc2)[C@H](O)[C@@H](O)[C@@H]1O` [Remogliflozin etabonate, remogliflozin etabonate]?
A: Time for drug-related beta-2 microglobulin elevation to return to normal ([1]; 500 mg): ≤ 4 days; Urine beta-2 microglobulin, elevation ([1]; 11 days after 500 mg, attributed by investigator to other concomitant disease): 2.5 µg/mL; Urine beta-2 microglobulin, drug-related elevation ([1]; day 1 after 500 mg, normal <0.3 μg/mL): 1.62 µg/mL; Fluid balance (total fluid intake minus total urine volume) ([2]; 0–12 h post-dose, 20 mg): 243 (1161) mL; Fluid balance (total fluid intake minus total urine volume) ([2]; 0–12 h post-dose, 50 mg): -570 (582) mL; Fluid balance (total fluid intake minus total urine volume) ([2]; 0–12 h post-dose, 150 mg): -86 (909) mL; Fluid balance (total fluid intake minus total urine volume) ([2]; 0–12 h post-dose, 500 mg): -159 (531) mL; Fluid balance (total fluid intake minus total urine volume) ([2]; 0–12 h post-dose, 1000 mg): -273 (331) mL; Fluid balance (total fluid intake minus total urine volume) ([2]; 12–24 h post-dose, 20 mg): -581 (387) mL; Fluid balance (total fluid intake minus total urine volume) ([2]; 12–24 h post-dose, 50 mg): -551 (530) mL; Fluid balance (total fluid intake minus total urine volume) ([2]; 12–24 h post-dose, 150 mg): -564 (478) mL; Fluid balance (total fluid intake minus total urine volume) ([2]; 12–24 h post-dose, 500 mg): -424 (334) mL; Fluid balance (total fluid intake minus total urine volume) ([2]; 12–24 h post-dose, 1000 mg): -495(367) mL; Fluid balance (total fluid intake minus total urine volume) ([2]; -24 h to pre-dose (baseline before dosing), 20 mg period): -460 (1311) mL; Fluid balance (total fluid intake minus total urine volume) ([2]; -24 h to pre-dose (baseline before dosing), 50 mg period): -338 (525) mL; Fluid balance (total fluid intake minus total urine volume) ([2]; -24 h to pre-dose (baseline before dosing), 150 mg period): -512 (731) mL; Fluid balance (total fluid intake minus total urine volume) ([2]; -24 h to pre-dose (baseline before dosing), 500 mg period): -278 (1250) mL; Fluid balance (total fluid intake minus total urine volume) ([2]; -24 h to pre-dose (baseline before dosing), 1000 mg period): -126 (798) mL; Urinary chloride excretion ([3]; 20 mg single dose): 136 (56.6) mmol; Urinary potassium excretion ([3]; 20 mg single dose): 66.6 (27.7) mmol; Urinary sodium excretion ([3]; 20 mg single dose): 148 (64.0) mmol; Urinary chloride excretion ([3]; 50 mg single dose, n = 7): 189 (51.4)^b mmol; Urinary potassium excretion ([3]; 50 mg single dose, n = 7): 75.2 (21.3)^b mmol; Urinary sodium excretion ([3]; 50 mg single dose, n = 7): 212 (67.6)^b mmol; Urinary chloride excretion ([3]; 150 mg single dose, n = 7): 179 (49.6)^b mmol; Urinary potassium excretion ([3]; 150 mg single dose, n = 7): 59.7 (20.3)^b mmol; Urinary sodium excretion ([3]; 150 mg single dose, n = 7): 176 (38.7)^b mmol; Urinary chloride excretion ([3]; 500 mg single dose): 126 (55) mmol; Urinary potassium excretion ([3]; 500 mg single dose): 55.8 (17.2) mmol; Urinary sodium excretion ([3]; 500 mg single dose): 143 (55.0) mmol; Urinary chloride excretion ([3]; 1000 mg single dose): 201 (61.5) mmol; Urinary potassium excretion ([3]; 1000 mg single dose): 89.1 (24.7) mmol; Urinary sodium excretion ([3]; 1000 mg single dose): 207 (62.9) mmol; Effect on clinical laboratory results, urine electrolytes, vital signs or ECGs ([3]; all subjects): no obvious patterns suggesting an effect; Urinary glucose excretion [4]: concentration-dependent increase; Filtered glucose excreted in urine (SGLT2; 20 mg single dose): 9.0 (2.2) %; Urinary glucose excretion (SGLT2; 20 mg single dose): 67.1 (17.9) mmol; Filtered glucose excreted in urine (SGLT2; 50 mg single dose, n = 7): 12.7 (3.7)^b %; Urinary glucose excretion (SGLT2; 50 mg single dose, n = 7): 96.7 (17.1)^b mmol; Filtered glucose excreted in urine (SGLT2; 150 mg single dose, n = 7): 25.5 (7.8)^b %; Urinary glucose excretion (SGLT2; 150 mg single dose, n = 7): 168 (49.4)^b mmol; Filtered glucose excreted in urine (SGLT2; 500 mg single dose): 34.2 (5.0) %; Urinary glucose excretion (SGLT2; 500 mg single dose): 223 (49.5) mmol; Filtered glucose excreted in urine (SGLT2; 1000 mg single dose): 26.4 (11.7) %; Urinary glucose excretion (SGLT2; 1000 mg single dose): 304 (137) mmol; Total amount of glucose excreted in urine from 0–24 h, dose dependence (SGLT2; both populations, less than proportional to dose): increased in a dose-dependent manner
